# Test results published in patent US4898878A, “Antioxidant thiohistidine compounds” (priority 1987, dated 1990).
# What was measured:
# [1] = biological target: ovoperoxidase (Strongylocentrotus purpuratus, UniProt O44391); experiment: CN--resistant NAD(P)H-O2 oxidoreductase (oxidase) activity of ovoperoxidase, thiol cofactor; type: biochemical; conditions: for cofactor for the CN--resistant oxidase reaction: in place of ovothiol
# Protocol: NAD(P)H--02 oxidoreductase activity was measured by following the oxidation of reduced pyridine nucleotides spectrophotometrically at 360 nm in a Gilford 420 spectrophotometer. The off-peak wavelength of 360 nm for reduced pyridine nucleotides allowed the use of higher concentrations in a 1.0 cm pathlength cuvette. Assays were conducted in a 1 ml volume containing 50 mM NaCl, 20mM Hepes, 20 mM Tris, at pH 8.0 and 25° C., to which was added for routine assays 0.4 mM NADH, 0.5 mM MnCl2, 1 mM NaCN, 134 nM ovoperoxidase, and the appropriate amount of ovothiol preparation. One unit of activity is defined as the amount of ovothiol needed to stimulate consumption of 1.0 nanomoles NADH/min. […] Assays were initiated with NADH unless otherwise specified.
# [2] = Trapping of tyrosyl radicals: photochemical dityrosine formation
# Source text: The known photochemical crosslinking of tyrosine (Amado, R., et al., Methods Enzymol. 107:377, 1984; Malencik, D. A., and S. R. Anderson, Biochem. 26:695, 1987; Joschek, H.-I., and S. I. Miller, J. Am. Chem. Soc. 88:3273, 1986) may be used as an assay for tyrosyl radical scavenging ability. This reaction proceeds by photochemical excitation of tyrosine, followed by an ejection of an electron to yield a tyrosyl radical. The ejected electron is apparently scavenged by oxygen, as evidenced by the augmentation of the tyrosine crosslinking rate on addition of SOD (scavenging 02^.-, thus slowing the back reaction of tyrosyl radical and 02^.- to yield tyrosine and 02). The tyrosyl radicals couple with one another to yield dityrosine, which is detected by its characteristic fluorescence. […] This is strong evidence that ovothiol can act as an efficient tyrosyl radical scavenger. This assay is mechanistically relatively simple technique for assaying antioxidants.
# [3] = tested on: xanthine/xanthine oxidase system; conditions: cited from earlier work
# [4] = Non-enzymic direct reaction of thiol with H2O2; type: physicochemical; conditions: metal-free solutions containing EDTA; for second order rate constant for reaction with H2O2: non-enzymic
# Protocol: The non-enzymic reaction of OSH and H2 02 was measured and compared with GSH reacting with H2 02.
# These preliminary studies were done in metal-free solutions containing EDTA, so additional experiments can compare the effect of ions of Fe, Mn, and Cu, as well as certain liganded derivatives such as hematin and vitamin B12, on the reaction. […] Oxidation of ovothiol can be monitored by its absorbance change at 310 nm (Turner et al., 1986) and glutathione by coupling the reaction to glutathione reductase and NADPH oxidation.
# [5] = Inhibition of pyrogallol autooxidation
# Source text: The inhibition of the air oxidation of pyrogallol has been used previously as an assay for superoxide dismutase (SOD) (Marklund, S., and G. Marklund, Eur. J. Biochem. 47:469, 1974; Roth, E. F. Jr., and H. S. Gilbert, Anal. Biochem. 137:50, 1984).
# [6] = tested on: xanthine/xanthine oxidase system; experiment: Xanthine oxidase-dependent oxyradical production, thiol oxidation; type: biochemical
# Source text: Xanthine oxidase with both acetaldehyde and xanthine as substrates (both xanthine and its product uric acid react with OH^.) are used to determine whether the aromatic thiols or glutathione are oxidized by this reaction, or whether they inhibit cytochrome C reduction (McCord, J. M., and I. Fridovich, J. Biol. Chem. 244:6049-6054, 1969; Crapo, J. D., et al, Methods in Enzymology 530:382-386, 1977). For example, the ovothiol analogue H3 is oxidized by the xanthine/xanthine oxidase system, and that this can be suppressed by up to 50% by addition of SOD. Since GSH is protected only 20% by SOD in this assay (Wefers, H., and H. Sies, Europ. J. Biochem. 137:2936, 1983; Ross, D., et al., Biochem. Biophys. Acta 841:278, 1983), this implies a higher reactivity of 4-mercaptohistidines toward 02^.-. Differences between the reactions with acetaldehyde and xanthine will implicate OH^. in the process.
# [7] = Reduction of Fremy's salt nitroxide radical; conditions: pH 7.0
# Source text: Fremy's salt (K^+- 03 SN(0^.)SO3^- K^+) is a stable, commercially available nitroxide radical. Reduction of this radical can be followed by UV or ESR. […] In this assay, a relatively large difference was seen between two aromatic thiols, H3 and thiophenol.
# [8] = tested on: sea urchin eggs; experiment: Toxicity to sea urchin eggs (inhibition of first cellular division after fertilization); type: cell-based; conditions: administered as the disulfide
# Source text: This aspect of the screening program introduces additional complications. For example, certain thiols are toxic to cells (Heinecke, J. W., et al., J. Biol. Chem. 262, 1987; Issels, R., et al., in Superoxide and Superoxide Dismutase in Chemistry, Biology, and Medicine, ed. G. Rotilio, pp. 419-421, Elsevier, N.Y., 1986) because they can autooxidize and produce reactive oxygen intermediates (Misra, H. R., J. Biol. Chem. 249:2151-2155,1974). Thiol toxicity may be due to redox cycling; for example, when cystine is given to cells it damages lipoproteins, apparently by being reduced to cysteine intracellularly then exiting to reoxidize and produce oxygen radicals and cellular damage. When we administered compound H3 (containing the reactive 4-mercaptoimidazole ring without the amino acid side chain) to sea urchin eggs, it was toxic at 2 mM but not at 200 μM (as assessed inhibition of the first cellular division after fertilization). […] We tried compound H3 because we thought it would be permeant, having no charged side chain; we administered it to these cells as the disulfide. We infer that the toxicity was caused by redox cycling, with H3 being taken up, reduced, and the thiol being reoxidized extracellularly to produce reactive oxygen intermediates. […]
# [9] = tested on: cultured myoblasts; experiment: Toxicity to cultured myoblasts (colony formation, 3H-TdR incorporation); type: cell-based; conditions: administered as the disulfide
# [10] = Reduction of ovothiol disulfide (OSSO) by reduced glutathione; type: physicochemical
# Protocol: The redox potential of ovothiol was determined, as were the kinetics for its interaction with glutathione and H2 02. The mid-point potential (E^o') was estimated indirectly by determining the equilibrium in reaction with other known thiol-disulfide equilibria, since direct determination of (E^o') for thiols is typically complicated by artifacts. […] Appropriate corrections were made for the mixed disulfides present at different concentrations of ovothiol and glutathione. E^o' (30^o) for ovothiol was 44 mV positive relative to glutathione, or -0.196 V. Thus, the ΔG^o' for the reduction of ovothiol disulfide (OSSO) by reduced glutathione (GSH) is […], so that at equilibrium reduced ovothiol (OSH) predominates in a mixture of equimolar oxidized ovothiol (OSSO) and reduced glutathione (GSH). From a thermodynamic point of view, ovothiol can be maintained almost entirely in the reduced state by GSH, and thus by NADPH via glutathione reductase, without the need for a specific ovothiol reductase. […] Because reduced glutathione reduces ovothiol, a functional ovothiol reductase reaction exists by coupling reactions and [6]. The second order rate constant for ovothiol reduction by glutathione is 88M^-1 S^-1. We calculate that egg glutathione reductase is sufficient to produce 4.1 pmol GSH/min; with an egg GSH content of 0.9 pmol, it would take only 13 seconds for the egg to regenerate its entire GSH content from GSSG, if NADPH were present (which it is after fertilization). […] In other words, reduction of ovothiol is rapid at the concentrations of glutathione and ovothiol of the egg, and an enzymatic "ovothiol reductase" is not required to catalyze reaction.
# [11] = tested on: eggs; experiment: Oxygen consumption by eggs; type: cell-based, sea urchin
# Source text: First, both ovothiol and NAD(P)H are intracellular metabolites, whereas ovoperoxidase is extracellular during the respiratory burst. […] Second, H2 02 is not released stoichiometrically by the ovoperoxidase-oxidase, so this cannot account for the significant concentrations of H2 02 previously detected at fertilization. Third, aminotriazole inhibits both the NAD(P)H oxidase and peroxidase activities of ovoperoxidase, yet has no effect on oxygen consumption by eggs.
# [12] = tested on: fertilized sea urchin eggs; type: in vitro ADME
# Protocol: First, the conditions under which ovothiols A or C are transported into the cells of interest are determined using radioactive ovothiol derivatives. For example, by reacting ovothiol A with ^3 H-formaldehyde and reduction by NaBH4, ovothiol A was converted into ^3 H-ovothiol C. […] The km for OSH uptake appears to be higher than for histidines, although the Vmax may be similar. We measure the kinetics of ovothiol uptake into the cells to be studied, in order to identify optimal conditions for transport. We no only use ^3 H-ovothiol C but also synthesize ^3 H-ovothiol A by using ^14 C--HCHO in the abovedescribed chemical synthesis procedure.
# [13] = tested on: sea urchin eggs; experiment: First cell division of sea urchin eggs after iodoacetamide treatment; type: cell-based; conditions: for cell division: 0.25 mM iodoacetamide
# Source text: The following biological experiment further implicates ovothiol in protection of eggs from H2 02 produced during the respiratory burst. If ovothiol were important in protection, then its absence should lead to embryonic lethality. […] However, iodoacetamide might have reacted with critical proteins (or other components) required for cell division, so that experiment was not definitive in implicating ovothiol. More recently, we added exogeneous catalase to eggs derivatized with iodoacetamide. Catalase should act as a second mechanism for removing H2 02 and partially compensate for the iodoacetamide treatment. The first cell division was blocked for eggs treated with 1.0 mM iodoacetamide prior to the respiratory burst (7% cleavage vs. 90% of control eggs). With catalase present during the respiratory burst, 70% of IAA-treated eggs divided (and 90% of the controls). Pretreatment with 0.25 mM iodoacetamide decreased cleavage to 75%; with exogenous 0.1 mM H2 02 added, cell division occurred in only 2% of these eggs, and with catalase present in 90%. Control eggs (not treated with iodoacetamide) were unaffected by 0.1 mM H2 02.
# [14] = Mid-point redox potential from equilibrium with glutathione thiol-disulfide; type: physicochemical; conditions: 30°
# Protocol: The redox potential of ovothiol was determined, as were the kinetics for its interaction with glutathione and H2 02. The mid-point potential (E^o') was estimated indirectly by determining the equilibrium in reaction with other known thiol-disulfide equilibria, since direct determination of (E^o') for thiols is typically complicated by artifacts. […] Appropriate corrections were made for the mixed disulfides present at different concentrations of ovothiol and glutathione. E^o' (30^o) for ovothiol was 44 mV positive relative to glutathione, or -0.196 V. Thus, the ΔG^o' for the reduction of ovothiol disulfide (OSSO) by reduced glutathione (GSH) is -0.386 kcal, so that at equilibrium reduced ovothiol (OSH) predominates in a mixture of equimolar oxidized ovothiol (OSSO) and reduced glutathione (GSH). From a thermodynamic point of view, ovothiol can be maintained almost entirely in the reduced state by GSH, and thus by NADPH via glutathione reductase, without the need for a specific ovothiol reductase. […] Because reduced glutathione reduces ovothiol, a functional ovothiol reductase reaction exists by coupling reactions and [6]. The second order rate constant for ovothiol reduction by glutathione is 88M^-1 S^-1. […]
# ovoperoxidase, sequence (O44391 entry or part of it): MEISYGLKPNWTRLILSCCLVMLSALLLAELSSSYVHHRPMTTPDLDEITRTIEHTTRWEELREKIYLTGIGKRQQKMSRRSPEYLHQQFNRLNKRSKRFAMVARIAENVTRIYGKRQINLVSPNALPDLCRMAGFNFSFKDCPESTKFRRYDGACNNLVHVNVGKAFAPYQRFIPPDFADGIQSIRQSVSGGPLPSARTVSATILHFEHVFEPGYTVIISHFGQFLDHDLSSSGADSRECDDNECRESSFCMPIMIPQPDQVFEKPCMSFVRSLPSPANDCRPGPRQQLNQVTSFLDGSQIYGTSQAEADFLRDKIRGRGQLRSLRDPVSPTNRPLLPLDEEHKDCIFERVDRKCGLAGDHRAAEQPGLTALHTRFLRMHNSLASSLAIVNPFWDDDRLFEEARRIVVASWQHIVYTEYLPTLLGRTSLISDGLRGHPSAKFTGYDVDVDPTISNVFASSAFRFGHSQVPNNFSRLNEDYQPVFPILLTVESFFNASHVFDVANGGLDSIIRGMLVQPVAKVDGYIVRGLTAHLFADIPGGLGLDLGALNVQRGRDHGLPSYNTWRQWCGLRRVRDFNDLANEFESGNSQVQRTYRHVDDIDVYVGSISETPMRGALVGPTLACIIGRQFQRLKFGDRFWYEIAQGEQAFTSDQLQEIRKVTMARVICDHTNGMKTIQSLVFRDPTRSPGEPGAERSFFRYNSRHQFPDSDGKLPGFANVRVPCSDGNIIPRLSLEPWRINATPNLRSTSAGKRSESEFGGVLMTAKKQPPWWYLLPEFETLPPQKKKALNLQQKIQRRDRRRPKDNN
molecule,measurement,setting,value
CC(C)(COP(=O)(O)OP(=O)(O)OC[C@H]1O[C@@H](n2cnc3c(N)ncnc32)[C@H](O)[C@@H]1OP(=O)(O)O)[C@@H](O)C(=O)NCCC(=O)NCCS [Coenzyme A],cofactor for the CN--resistant oxidase reaction,[1],could not be replaced by
"N[C@@H](CCC(=O)N[C@@H](CS)C(=O)NCC(=O)O)C(=O)O [GSH, glutathione]",inhibition of photochemical dityrosine formation,[2],at least an order of magnitude less effective
same,cofactor for the CN--resistant oxidase reaction,[1],could not be replaced by
same,protection by SOD in this assay,[3],20%
same,second order rate constant for reaction with H2O2,[4],1.5 M^-1 S^-1
same,"concentration needed for effect, relative to H3",[5],50 fold
same,effect on air oxidation of pyrogallol,[5],more modest inhibitory effect
"Cc1c(S)ncn1C [H3, 1,5-dimethyl-4-mercaptoimidazole]",inhibition of photochemical dityrosine formation,[2],strong inhibitor
same,effect on dityrosine formation at 1 μM,[2]; 1 μM,slowing the reaction for several minutes
same,oxidation by the xanthine/xanthine oxidase system,[6],is oxidized
same,suppression of oxidation by addition of SOD,[6]; xanthine/xanthine oxidase,up to 50%
same,rate of reduction of Fremy's salt relative to glutathione,[7],~40 fold
same,rate of reduction of Fremy's salt relative to thiophenol,[7],roughly ten-fold faster
same,"rate of reduction of Fremy's salt, rank",[7],fastest radical scavenger
same,toxicity to sea urchin eggs at 200 μM,[8]; 200 μM,not
same,toxicity to sea urchin eggs at 2 mM,[8]; 2 mM,toxic
same,effect on air oxidation of pyrogallol,[5],induces a time lag
same,colony formation of cultured myoblasts,[9]; 200 μM,inhibited colony formation
same,IC50,"[9]; Myoblast, cultured myoblasts, read-out: half-maximal effect on 3H-TdR incorporation",15 µM
CN(C)[C@@H](Cc1c(SSc2ncn(C)c2C[C@@H](C(=O)O)N(C)C)ncn1C)C(=O)O [OSSO],ΔG°' for reduction of ovothiol disulfide (OSSO) by reduced glutathione (GSH),[10],-0.386 kcal
same,t1/2 for reduction of OSSO to OSH,[10]; normal cellular GSH levels,1.6 s
Nc1nc[nH]n1 [aminotriazole],effect on oxygen consumption by eggs,[11],no effect
N[C@@H](CS)C(=O)O [cysteine],cofactor for the CN--resistant oxidase reaction,[1],could not be replaced by
C[N+](C)(C)[C@@H](Cc1c[nH]c(=S)[nH]1)C(=O)[O-] [ergothioneine],cofactor for the CN--resistant oxidase reaction,[1],could not be replaced by
N[C@@H](Cc1c[nH]cn1)C(=O)O [histidine],uptake by fertilized sea urchin eggs,[12],38 fmol/egg/hr
NC(=O)CI [iodoacetamide],cell division,"[13]; 0.1 mM H2O2, catalase present",90%
same,cell division,[13]; exogenous 0.1 mM H2O2 added,2%
same,cleavage (first cell division),[13]; 1.0 mM iodoacetamide prior to respiratory burst,7%
same,eggs divided,"[13]; 1.0 mM iodoacetamide, catalase present during respiratory burst",70%
same,cleavage,[13]; pretreatment with 0.25 mM iodoacetamide,75%
"CN(C)[C@@H](Cc1c(S)ncn1C)C(=O)O [ovothiol C, 1-methyl-N^α N^α -dimethyl-4-thiolhistidine]",E°' mid-point potential,[14],-0.196 V
same,E°' relative to glutathione (positive),[14],44 mV
same,second order rate constant for ovothiol reduction by glutathione,[10],88 M^-1 S^-1
same,ovothiol concentration giving maximal oxidase activity,[1],1 mM
same,km for uptake compared with histidines,[12],higher
same,uptake by fertilized sea urchin eggs,[12],6 fmol/egg/hr
same,rate with H2O2 relative to reduced glutathione,[4],~2.3 fold
same,second order rate constant for reaction with H2O2,[4],3.34 M^-1 S^-1
same,second order rate constant for reaction with H2O2,[4]; listed as OSH,3.3 M^-1 S^-1
Sc1ccccc1 [thiophenol],effect on air oxidation of pyrogallol,[5],"similar, though not identical"
catalase,inhibition of the NAD(P)H oxidase activity of ovoperoxidase,[1],inhibited
superoxide dismutase,inhibition of the NAD(P)H oxidase activity of ovoperoxidase,[1],inhibited
